This is an account of results in patent publication US20070021391A1, “Preventive/remedy for urinary disturbance” (priority 2003, published 2007).

Test [1] concerns the target T1, acetylcholine esterase of human erythrocyte origin (Homo sapiens, UniProt P22303).
T1 construct: acetylcholine esterase of human erythrocyte origin; purchased Sigma, St. Louis, Mo., USA; host or cells: human erythrocytes
In words: biochemical. The class given is biochemical. Particulars: for Selectivity b/a: BuChE IC50/AChE IC50 (Table 3).

Test [2] concerns the target T2, butyrylcholine esterase of human serum origin (Homo sapiens, UniProt P06276).
T2 construct: butyrylcholine esterase of human serum origin; purchased Biogenesis, Poole, UK; host or cells: human serum
As to the kind of experiment: biochemical. Particulars: read-out: BuChE IC50. It is filed as biochemical.
Description: The AChE inhibitory activity and the BuChE inhibitory activity were determined by a thiocholine method (Ellman method) using acetylcholine esterase of human erythrocyte origin (Sigma, St. Louis, Mo., USA) and butyrylcholine esterase of human serum origin (Biogenesis, Poole, UK). Acetylcholine esterase or butyrylcholine esterase was diluted to a concentration of 0.2 IU/mL with 80 mM tris-HCL buffers (pH=7.4) containing 0.3% bovine serum albumin (BSA) to prepare an enzyme preparation. […] The stock solution was diluted at 3-fold common ratio with 10% DMSO and 80 mM tris-HCl buffers containing 0.3% BSA. On a 96 wells microplate, 20 μL of the drug solution with a given concentration, 30 μL of 80 mM tris-HCl buffers containing 0.3% BSA and 50 μL of the enzyme preparation were distributed, and incubated at room temperature for 1 hour after shaking for 10 seconds. […] For the respective drugs, the test was repeated twice. The % of control of the increase in light absorption was calculated at each concentration with respect to the respective drugs. % of control=increase in light absorption of drug/increase in light absorption of control×100

Test [3] deals with Hartley male guinea pig, urethane anesthesia. As to the kind of experiment: Pressure/flow study using guinea pig under continuous phenylephrine (Example 4). It is filed as in vivo. The conditions noted are these: i.v., phenylephrine 3 μg/animal/min. The protocol: A parameter (the maximum urine flow rate) at urination and a parameter (bladder compliance) at the collection of urine were also measured by a method similar as Example 3 shown below, with respect to the compounds B1 to B6 ([Table 8]).
A Hartley male guinea pig of 4 to 5 weeks old (Japan SLC) was used. After urethane anesthesia, the medial incision of the lower abdomen was carried out, and the bladder was exposed. Two injection needles (20G) with which a polyethylene tube (PE-100) was linked were inserted in the bladder, and one needle was used for injection of saline and another needle was used for measurement of the inner pressure of the bladder. A catheter was inserted in fernoral vein, and phenylephrine was continuously administrated at a flow rate of 3 μg/animal/min. Saline was continuously injected at a speed of 18 mL/h, the injection was stopped after intermittent urination was confirmed 2 times at minimum, and the saline in the bladder was removed by suction. Injection was started again, and the injection was stopped when the raise of the inner pressure of the bladder just before urination was confirmed. The amount of urine eliminated was measured by an electronic weighing machine and the inner pressure of the bladder was measured using a pressure transducer. The analogue data of the weight of urine and the inner pressure of the bladder were inputted in a multi-channel data analyzer (MP-100A-CE, Biopac systems), and analyzed by a proprietary software (Acqknowledge, Biopac systems). As the parameters, the maximum urine flow rate and bladder compliance were measured. Saline in the bladder was extracted after 10 min of the intravenous administration of the compound, and injection was started again to carry out measurement. The compounds were dissolved with DMSO so that administration volume was 0.5 mL/kg. The change rate of respective parameters before and after administration of the compounds was calculated and the calibration of significant difference was carried out by a solvent administration group and t calibration.

In a further test the test system is male SD rat. As to the kind of experiment: Acetylcholine inductive salivation in rat (Example 5). The class given is in vivo. The conditions noted are these: for Amount of saliva secreted: rat. On the procedure:
(§1) A male SD rat (CLEA Japan Inc.) with a body weight of about 400 g or a Hartley male guinea pig with a body weight of 400 to 500 g (Japan SLC) were used. After urethane anesthesia, sanitary cotton preliminarily weighed was inserted in the mouth of the animal and acetylcholine was intravenously administrated. After 5 minutes, the sanitary cotton was taken out to be weighed and the amount of saliva secreted was measured. The drug was intravenously administrated at 10 min before the administration of acetylcholine. The effect of oxybutynin was analyzed by paired t calibration and the concomitant use effect of the compound A was analyzed by William calibration.

Another test concerns Hartley male guinea pig. In words: Acetylcholine inductive salivation in guinea pig (Example 5). The class given is in vivo. The protocol: as §1
The subject of test [4] is Hartley male guinea pig, urethane anesthesia. In words: Urine flow dynamic parameters with oxybutynin and compound A (Example 6). It is filed as in vivo. The conditions noted are these: oxybutynin 1 mg/kg. The protocol: A Hartley male guinea pig with a body weight of about 500 g (Japan SLC Hamamatsu) was used. After urethane anesthesia (1.4 g/kg, i.p.), the medial incision of the lower abdomen was carried out, and the bladder was exposed. Two injection needles (20G) with which a polyethylene tube (PE-100, Becton Dickinson, Franklin Lakes, N.J., USA) was linked were inserted in the bladder, and one needle was used for injection of saline and another needle was used for measurement of the inner pressure of the bladder. Further, a cannula (PE-10, Becton Dickinson) for injection of phenylephrine was inserted in right common jugular vein. […] The amount of urine eliminated was measured by an electronic weighing machine (GX-400, A&D, Tokyo) and the inner pressure of the bladder was measured using a pressure transducer (AP641G, NIPPON KODEN Corporation, Tokyo). The analogue data of the weight of urine and the inner pressure of the bladder were inputted in a multi-channel data analyzer (MP-100A-CE, Biopac systems), and analyzed by a proprietary software (Acqknowledge 3.7.1, Biopac systems). The sampling interval of data was 0.1 sec and a low pass filter was applied to the data of discharge amount and urine flow rate at 0.5 Hz in order to remove noise. A delay time of 0.1 sec in weighing the urine was rectified, and the urine flow rate was determined by differentiating the value of discharge amount. The dynamic state parameter of the flow of urine below was measured. A bladder volume, the maximum urine flow rate, urination efficiency (=amount of urination/bladder volume). The effect of oxybutynin was analyzed by the paired t calibration and the concomitant use effect of the compound A was analyzed by Dunnett calibration.

The mark [5] stands for this setting: mean value of twice tests, read-out: AchE IC50.
Setting [6] is: acetylcholine 1 mg/kg alone, 5 minutes.

As usually defined, the IC50 is the point on the concentration scale where inhibition reaches its midpoint.

Counter-ions that a name gives are not always drawn. Like-named read-outs stand apart in the source and are kept apart here.

T2 sequence (P06276 29-602): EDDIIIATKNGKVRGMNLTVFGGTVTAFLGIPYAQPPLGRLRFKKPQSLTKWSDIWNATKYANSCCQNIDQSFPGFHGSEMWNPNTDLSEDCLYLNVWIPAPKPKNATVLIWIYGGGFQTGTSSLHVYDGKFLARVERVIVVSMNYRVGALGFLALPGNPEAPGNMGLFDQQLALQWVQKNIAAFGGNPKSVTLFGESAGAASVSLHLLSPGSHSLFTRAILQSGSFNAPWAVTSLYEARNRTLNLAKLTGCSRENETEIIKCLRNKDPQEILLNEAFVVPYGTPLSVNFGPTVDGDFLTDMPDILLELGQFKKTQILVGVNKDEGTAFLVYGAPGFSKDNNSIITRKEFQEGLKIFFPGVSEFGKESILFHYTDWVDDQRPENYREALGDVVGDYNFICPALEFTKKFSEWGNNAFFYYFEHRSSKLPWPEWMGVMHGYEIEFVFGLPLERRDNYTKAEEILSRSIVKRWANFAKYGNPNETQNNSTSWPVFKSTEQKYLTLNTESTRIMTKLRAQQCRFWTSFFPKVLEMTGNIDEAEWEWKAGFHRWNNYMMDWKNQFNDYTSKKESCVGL
T1 sequence (P22303 32-617 isoform P22303-2 limits assumed): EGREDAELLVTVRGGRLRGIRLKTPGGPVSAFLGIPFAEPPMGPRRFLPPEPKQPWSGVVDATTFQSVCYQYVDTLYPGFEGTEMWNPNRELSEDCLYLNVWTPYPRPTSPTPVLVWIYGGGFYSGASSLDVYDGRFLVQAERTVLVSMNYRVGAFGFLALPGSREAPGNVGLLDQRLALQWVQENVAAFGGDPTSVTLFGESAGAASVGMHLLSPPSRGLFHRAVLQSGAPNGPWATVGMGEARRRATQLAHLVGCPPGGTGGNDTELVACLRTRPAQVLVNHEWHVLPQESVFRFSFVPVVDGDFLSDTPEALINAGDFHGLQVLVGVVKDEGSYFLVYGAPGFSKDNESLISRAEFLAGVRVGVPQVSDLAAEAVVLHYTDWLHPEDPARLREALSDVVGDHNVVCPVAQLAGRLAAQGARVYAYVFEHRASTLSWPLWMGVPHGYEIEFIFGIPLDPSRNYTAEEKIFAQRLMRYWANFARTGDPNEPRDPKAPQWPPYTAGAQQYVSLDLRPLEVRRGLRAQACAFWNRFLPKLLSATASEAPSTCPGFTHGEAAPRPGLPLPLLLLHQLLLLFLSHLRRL

Consider `O=C(CCCCNCCc1ccccc1Cl)c1cc2c3c(c1)CC(=O)N3CCC2` [Compound B1, 8-[5-[[2-(2-chlorophenyl)ethyl]amino]pentanoyl]-5,6-dihydro-4H-pyrrolo[3,2,1-ij]quinolin-2(1H)-one) hydrochloride], for which, in test [1], the Selectivity b/a is listed as 100. For the same compound, in test [1] (setting [5]), the IC50 was 0.056 µM. Moreover, the IC50 in test [2] (mean value of twice tests) was found to be 5.7 µM. Further, in test [3] (0.1 mg/kg), the “Bladder compliance, proportion for value before administration” value (“Bladder compliance, proportion” for short) worked out at 105.1 ± 12.9 and the “Maximum urine flow rate, proportion for value before administration” value was 170.4 ± 27.8.
Consider `CC(=O)OCC[N+](C)(C)C` [Acetylcholine], for which the “Amount of saliva secreted” value in the test with male SD rat (setting [6]) stood at 0.27 ± 0.04 g; in the test on Hartley male guinea pig (setting [6]) it was 0.23 ± 0.03 g.
Regarding `CCN(CC)CC#CCOC(=O)C(O)(c1ccccc1)C1CCCCC1` (stereo not drawn) [Oxybutynin], the “action on acetylcholine-induced secretion of saliva” value in the test with male SD rat (rat and guinea pig (Tables 9 and 10)) is “significantly suppressed”. In addition, the “Amount of saliva secreted” value in the test with male SD rat (oxybutynin 0.1 mg/kg + acetylcholine 1 mg/kg) is 0.17 ± 0.02 g. Also, in test [4] (iv alone), the “Bladder volume, proportion for value before administration (%)” value came to 28.87 ± 7.01 %; the “Maximum urine flow rate, proportion for value before administration (%)” value is given as −44.42 ± 9.44 %; the “Urination efficiency, proportion for value before administration (%)” value is −66.14 ± 5.91 %. In test [4] (compound A 0.003, 0.01 mg/kg with oxybutynin), the “action on bladder volume, maximum urine flow rate and urination efficiency” value is “significant increase of bladder volume and the lowering of the maximum urine flow rate and urination efficiency were confirmed”. The “Amount of saliva secreted” value in the test on Hartley male guinea pig (oxybutynin 1 mg/kg + acetylcholine 1 mg/kg) was 0.11 ± 0.02 g.
In test [1], `CCNC(=O)N1CCc2cc(C(=O)CCCCNCCc3ccccc3OC)ccc21.Cl` [Compound B4, N-ethyl-5-[5-[[2-(2-methoxyphenyl)ethyl]amino]pentanoyl]-1-indolincarboxamide hydrochloride] displayed an IC50 of 0.118 µM and a Selectivity b/a of more than 85. Besides, in test [2], the IC50 was more than 10 µM. Further, in test [3] (0.3 mg/kg), the “Bladder compliance, proportion” value was found to be 104.2 ± 8.1 and the “Maximum urine flow rate, proportion for value before administration” value came out at 165.4 ± 14.9.
On to `COc1ccccc1CCNCCCCC(=O)c1ccc2c(c1)n(C)c(=O)n2C` [Compound B5, 5-[5-[[2-(2-methoxyphenyl)ethyl]amino]pentanoyl]-1,3-dimethyl-1,3-dihydro-2H-benzoimidazol-2-one) hydrochloride], for which the Selectivity b/a in test [1] is reported as more than 150. In addition, in test [1] (setting [5]), the IC50 was found to be 0.065 µM. The IC50 in test [2] (mean value of twice tests) was more than 10 µM. In test [3] (0.03 mg/kg), the “Bladder compliance, proportion” value amounted to 95.0 ± 4.3 and the “Maximum urine flow rate, proportion for value before administration” value turned out to be 135.5 ± 19.1.
